Results from US20240228494A1, “COMPOUNDS” (PATHIOS THERAPEUTICS LIMITED, priority 2021, published 2024).

Target: human recombinant GPR65 (Homo sapiens, UniProt Q8IYL9)
Test: Human GPR65 cAMP HTRF antagonist assay
Format: cell-based
Details: not given
Text: In one preferred embodiment, the compound prevents the increase in cytoplasmic cAMP levels expected following GPR65 activation at acidic pH. This prevention of cAMP accumulation in turn prevents downstream signalling through ICER, as described above. The “Human GPR65 cyclic adenosine monophosphate (cAMP) Homogeneous Time Resolved Fluorescence (HTRF) antagonist assay”, or simply “cAMP assay”, as described in the accompanying examples, can be used to measure the potency of GPR65 modulators, which is expressed as the concentration of compound required to reduce the increase in cAMP concentration upon GPR65 activation by 50% (i.e. an IC50).
Human GPR65 Cyclic Adenosine Monophosphate (cAMP) Homogeneous Time Resolved Fluorescence (HTRF) Antagonist Assay Procedure
IC50 data was obtained by the following procedure:
1321N1 human astrocytoma cells stably expressing human recombinant GPR65 (1321N1-hrGPR65 cells, EuroscreenFast) were cultured according to the vendor's instructions.
Compounds were tested for their ability to antagonise GPR65, through measuring the concentration of cytoplasmic cAMP following treatment of the cells at a pH of 7.2 to activate GPR65 signalling and addition of the compound to be tested. The extent to which the expected rise in cAMP concentration upon GPR65 activation was suppressed by the added compound is indicative of its potency. The assay was carried out according to EuroscreenFast assay methodology as follows.
On the day of the assay, test compounds were added to 384-well, low volume, white microtiter plates by acoustic dispensing. KRH buffer (5 mM KCl, 1.25 mM MgSO4, 124 mM NaCl, 25 mM HEPES, 13.3 mM Glucose, 1.25 mM KH2PO4 and 1.45 mM CaCl2) was adjusted to pH 6.5, pH 7.6 and pH 8.4 by adding NaOH. 1321N1-hGPR65 cells were rapidly thawed and diluted in KRH, pH 7.6 prior to centrifugation at 300×g for 5 min and resuspension in assay buffer (KRH, pH 7.6, supplemented with 1 mM 3-isobutyl-1-methylxanthine (IBMX) and 200 μM ethylenediaminetetraacetic acid (EDTA)). Cells were added to assay plates at a density of 2,000 cells per well in a volume of 5 μl. Assay plates were briefly centrifuged at 100×g and then incubated at room temperature for 30 min. Cells were stimulated by the addition of 5 μL KRH, pH 6.5, to achieve an assay pH of 7.2, while control wells received 5 μl KRH, pH 8.4 to achieve an assay pH of 7.9. Assay plates were briefly centrifuged at 100×g and then incubated at room temperature for 30 min.
Accumulation of cAMP was detected by cAMP HTRF kit (Cisbio). d2-labeled cAMP and cryptate-labeled anti-cAMP antibody in Lysis and Detection Buffer (Cisbio) were added to assay plates, and the plates were incubated at room temperature for 1 h. HTRF measurements were performed using a Pherastar FSX instrument. Acceptor and donor emission signals were measured at 665 nm and 620 nm, respectively, and HTRF ratios were calculated as signal665 nm/signal620 nm×10^4. Data were normalised to high and low control values and fitted with 4-parameter logistic regression to determine hGPR65 IC50 values for the test compounds, which are shown in Table 1.

human recombinant GPR65, sequence (Q8IYL9 whole entry): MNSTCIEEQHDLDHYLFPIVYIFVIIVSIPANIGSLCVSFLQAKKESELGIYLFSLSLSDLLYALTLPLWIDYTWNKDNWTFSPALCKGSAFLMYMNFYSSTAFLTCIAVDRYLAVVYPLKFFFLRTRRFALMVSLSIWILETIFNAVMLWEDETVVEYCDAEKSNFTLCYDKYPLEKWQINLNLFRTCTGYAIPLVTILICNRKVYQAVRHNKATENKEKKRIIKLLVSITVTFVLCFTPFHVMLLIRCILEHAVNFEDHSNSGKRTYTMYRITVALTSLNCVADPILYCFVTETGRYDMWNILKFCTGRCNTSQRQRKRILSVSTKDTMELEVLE

**Q.** With `S=C(Nc1ccc(Cl)c(Cl)c1)N1C2CCC1c1cncnc1C2` (racemic) [Compound 5, (±)-N-(3,4-dichlorophenyl)-6,7,8,9-tetrahydro-5H-5,8-epiminocyclo-hepta[d]pyrimidine-10-carbothioamide] as the compound, how does the IC50 read?
**A.** < 500 nM

**Q.** `O=C(Oc1ccc(Cl)c(Cl)c1)N1C2CCC1c1cncnc1C2` (racemic) [Compound 10, 3,4-dichlorophenyl (±)-6,7,8,9-tetrahydro-5H-5,8-epiminocyclohepta-[d]pyrimidine-10-carboxylate] was tested. Which IC50 did it give?
**A.** 500 to 5000 nM

**Q.** How did the IC50 turn out when `Fc1cc(C(F)(F)F)c(Br)cc1NC(=S)N1[C@H]2CC[C@@H]1c1ccnc(F)c1C2` [Compound 1, (5R,8S)—N-(5-Bromo-2-fluoro-4-(trifluoromethyl)phenyl)-1-fluoro-6,7,8,9-tetrahydro-5H-5,8-epiminocyclohepta[c]pyridine-10-carbothioamide] was run?
**A.** < 500 nM

**Q.** For `O=c1cc2c(c[nH]1)[C@H]1CC[C@@H](C2)N1C(=S)Nc1cc(Cl)c(C(F)(F)F)cc1F` [Compound 2, (6S,9R)-N-(5-Chloro-2-fluoro-4-(trifluoromethyl)phenyl)-3-oxo-3,5,6,7,8,9-hexahydro-2H-6,9-epiminocyclohepta[c]pyridine-10-carbothioamide], which IC50 is on record?
**A.** < 500 nM

**Q.** With `Fc1cc(Cl)c(Cl)cc1NC(=S)N1[C@H]2CC[C@@H]1c1ccnc(F)c1C2` [Compound 3, (5R,8S)-N-(4,5-dichloro-2-fluorophenyl)-1-fluoro-6,7,8,9-tetrahydro-5H-5,8-epiminocyclo-hepta[c]pyridine-10-carbothioamide] as the compound, how does the IC50 read?
**A.** < 500 nM

**Q.** `Fc1cc(C(F)(F)F)c(Cl)cc1NC(=S)N1[C@H]2CC[C@@H]1c1ccnc(F)c1C2` [Compound 4, (5R,8S)-N-(5-chloro-2-fluoro-4-(trifluoromethyl)phenyl)-1-fluoro-6,7,8,9-tetrahydro-5H-5,8-epiminocyclohepta[c]pyridine-10-carbothioamide] was tested. Which IC50 did it give?
**A.** < 500 nM

**Q.** For `N#C/N=C(\Nc1ccc(Cl)c(Cl)c1)N1[C@H]2CC[C@@H]1c1ccnc(F)c1C2` [Compound 6, (5R,8S,)—N′-Cyano-N-(3,4-dichlorophenyl)-1-fluoro-6,7,8,9-tetrahydro-5H-5,8-epiminocyclohepta[c]pyridine-10-carboximidamide], which IC50 is on record?
**A.** < 500 nM

**Q.** How did the IC50 turn out when `Fc1cc(Cl)c(Cl)cc1CN1[C@H]2CC[C@@H]1c1ccnc(F)c1C2` [Compound 9, (5R,8S)-10-(4,5-dichloro-2-fluorobenzyl)-1-fluoro-6,7,8,9-tetrahydro-5H-5,8-epiminocyclohepta[c]pyridine] was run?
**A.** 500 to 5000 nM

**Q.** With `N#C/N=C(/Nc1cc(C(F)(F)F)c(Cl)cc1F)N1[C@H]2CC[C@@H]1c1ccnc(F)c1C2` [Compound 11, (5R,8S)-N-(4-Chloro-2-fluoro-5-(trifluoromethyl)phenyl)-N′-cyano-1-fluoro-6,7,8,9-tetrahydro-5H-5,8-epimino-cyclohepta[c]pyridine-10-carboximidamide] as the compound, how does the IC50 read?
**A.** < 500 nM

**Q.** Which IC50 does the source give for `N#C/N=C(/Nc1cc(Cl)c(Cl)cc1F)N1[C@H]2CC[C@@H]1c1ccnc(F)c1C2` [Compound 12, (5R,8S)-N′-cyano-N-(4,5-dichloro-2-fluorophenyl)-1-fluoro-6,7,8,9-tetrahydro-5H-5,8-epiminocyclohepta-[c]pyridine-10-carboximidamide] here?
**A.** < 500 nM

**Q.** Which IC50 does the source give for `O=C(C(=O)N1[C@H]2CC[C@@H]1c1ccnc(F)c1C2)c1ccc(Cl)c(Cl)c1` [Compound 13, 1-(3,4-Dichlorophenyl)-2-((5R,8S)-1-fluoro-6,7,8,9-tetrahydro-5H-5,8-epiminocyclohepta[c]pyridin-10-yl)ethane-1,2-dione] here?
**A.** 500 to 5000 nM

**Q.** How did the IC50 turn out when `O/N=C(\Nc1cc(Cl)c(Cl)cc1F)N1[C@H]2CC[C@@H]1c1ccnc(F)c1C2` [Compound 15, (5R,8S)—N-(4,5-dichloro-2-fluorophenyl)-1-fluoro-N′-hydroxy-6,7,8,9-tetrahydro-5H-5,8-epiminocyclohepta[c]pyridine-10-carboximidamide] was run?
**A.** < 500 nM

**Q.** With `CO/N=C(\Nc1cc(Cl)c(Cl)cc1F)N1[C@H]2CC[C@@H]1c1ccnc(F)c1C2` [Compound 16, (5R,8S)—N-(4,5-dichloro-2-fluorophenyl)-1-fluoro-N′-methoxy-6,7,8,9-tetrahydro-5H-5,8-epiminocyclohepta[c]pyridine-10-carboximidamide] as the compound, how does the IC50 read?
**A.** < 500 nM

Same assay, conditions: 1321N1-hrGPR65 cells, assay pH 7.2, suppression of cAMP rise; read-out: hGPR65 IC50

**Q.** With `O=C(C(O)c1ccc(Cl)c(Cl)c1)N1[C@H]2CC[C@@H]1c1ccnc(F)c1C2` (single isomer, unassigned) [Compound 7] as the compound, how does the IC50 read?
**A.** > 5000 nM

**Q.** How did the IC50 turn out when `O=C(Cc1ccc(Cl)c(Cl)c1)N1[C@H]2CC[C@@H]1c1ccnc(F)c1C2` [Compound 8, 2-(3,4-dichlorophenyl)-1-((5R,8S)-1-fluoro-6,7,8,9-tetrahydro-5H-5,8-epimino-cyclohepta[c]pyridin-10-yl)ethan-1-one] was run?
**A.** 500 to 5000 nM

**Q.** Which IC50 does the source give for `N=C(Nc1cc(Cl)c(Cl)cc1F)N1[C@H]2CC[C@@H]1c1ccnc(F)c1C2` [Compound 17, (5R,8S)—N′-(4,5-dichloro-2-fluorophenyl)-1-fluoro-6,7,8,9-tetrahydro-5H-5,8-epiminocyclohepta[c]pyridine-10-carboximidamide] here?
**A.** > 5000 nM
